Laboratory results published in patent US11845760B2, “PRMT5 inhibitors” (AMGEN INC., priority 2020, dated 2023).
Read-outs that look alike come from different tables or passages of the source.

How the values were obtained:
HCT116 MTAP null cells = assay: HCT116 MTAP null cell line proliferation (CellTiter-Glo cell viability, 6 days); format: cell-based; settings: read-out: HCT-116 MTAP null IC50
Procedure, shortened: (§1)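 Viability by CellTiter-Glo after 6 days' drug exposure in wild-type HCT116 and its MTAP-null knockout, with DMSO-only control. Dosing used either 1:3 steps (top 1 or 10 μM) or 22 points in 1:2 steps (top 10 or 50 μM). IC50 taken where the fitted curve crosses 50% of control.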

HCT116 WT cells = assay: HCT116 WT cell line proliferation (CellTiter-Glo cell viability, 6 days); format: cell-based; settings: read-out: HCT-116 WT IC50
Procedure, shortened: as §1

[1] = HCT116-MTAP null, 144 h, HCT116 MTAP null cells, 6 days of treatment, CellTiter-Glo cell viability
[2] = Homo sapiens, HCT-116, 144 h, HCT116 WT (parent) cells, 6 days of treatment, CellTiter-Glo cell viability
[3] = HCT116 MTAP null cells, 6 days of treatment, CellTiter-Glo cell viability
[4] = HCT116 WT (parent) cells, 6 days of treatment, CellTiter-Glo cell viability

## C[C@@H]1COC[C@H](c2ccc(OC(F)F)nn2)N1C(=O)c1cc2c(cc1F)nc(N)c1cnn(C)c12 [Example 561, (4-amino-7-fluoro-1-methyl-1H-pyrazolo[4,3-c]quinolin-8-yl)((3S,5R)-3-(6-(difluoromethoxy)-3-pyridazinyl)-5-methyl-4-morpholinyl)methanone]
HCT116 MTAP null cells; [1]
  IC50: 6 nM
HCT116 WT cells; [2]
  IC50: 120 nM

## C[C@@H]1COC[C@H](c2ccc(OC(F)F)nn2)N1C(=O)c1cc2c3c(c(N)nc2cc1F)[C@@H](C)OC3 [Example 562, ((3R)-4-amino-7-fluoro-3-methyl-1,3-dihydrofuro[3,4-c]quinolin-8-yl)((3S,5R)-3-(6-(difluoromethoxy)-3-pyridazinyl)-5-methyl-4-morpholinyl)methanone]
HCT116 MTAP null cells; [1]
  IC50: 6 nM
HCT116 WT cells; [2]
  IC50: 84 nM

## C[C@@H]1COC[C@H](c2ccc(OCC(F)(F)F)nn2)N1C(=O)c1cc2c3c(c(N)nc2cn1)COC3 [Example 563, (4-amino-1,3-dihydrofuro[3,4-c][1,7]naphthyridin-8-yl)((3R,5S)-3-methyl-5-(6-(2,2,2-trifluoroethoxy)-3-pyridazinyl)-4-morpholinyl)methanone]
HCT116 MTAP null cells; [1]
  IC50: 32 nM
HCT116 WT cells; [2]
  IC50: 1060 nM

## C[C@@H]1COC[C@H](c2ccc(OCCC(F)(F)F)nn2)N1C(=O)c1cc2c3c(c(N)nc2cn1)COC3 [Example 564, (4-amino-1,3-dihydrofuro[3,4-c][1,7]naphthyridin-8-yl)((3R,5S)-3-methyl-5-(6-(3,3,3-trifluoropropoxy)-3-pyridazinyl)-4-morpholinyl)methanone]
HCT116 MTAP null cells; [1]
  IC50: 28 nM
HCT116 WT cells; [2]
  IC50: 708 nM

## C[C@@H]1COC[C@H](c2ccc(OCCC(F)(F)F)nn2)N1C(=O)c1cc2c3c(c(N)nc2cc1F)[C@@H](C)OC3 [Example 565, ((3R)-4-amino-7-fluoro-3-methyl-1,3-dihydrofuro[3,4-c]quinolin-8-yl)((3R,5S)-3-methyl-5-(6-(3,3,3-trifluoropropoxy)-3-pyridazinyl)-4-morpholinyl)methanone]
HCT116 MTAP null cells; [1]
  IC50: 6 nM
HCT116 WT cells; [2]
  IC50: 72 nM

## Nc1nc2cnc(C(=O)N3CC[S+]([O-])C[C@@H]3c3ccc(C(F)(F)F)cc3)cc2c2c1COC2 (stereo partly drawn) [Example 623, (4-Amino-1,3-dihydrofuro[3,4-c][1,7]naphthyridin-8-yl)((3S)-1-oxido-3-(4-(trifluoromethyl)phenyl)thiomorpholino)methanone]
HCT116 MTAP null cells; HCT116-MTAP null, 144 h
  IC50: 843 nM
HCT116 WT cells; Homo sapiens, HCT-116, 144 h
  IC50: 25700 nM

## CC(=O)N1CCN(C(=O)c2cc3c4c(c(N)nc3cn2)COC4)[C@@H](c2ccc(C(F)(F)F)cc2)C1 [Example 624, (S)-1-(4-(4-Amino-1,3-dihydrofuro[3,4-c][1,7]naphthyridine-8-carbonyl)-3-(4-(trifluoromethyl)phenyl)piperazin-1-yl)ethan-1-one]
HCT116 MTAP null cells; [1]
  IC50: 343 nM
HCT116 WT cells; [2]
  IC50: 8570 nM

## Nc1nc2ccc(C(=S)N3CCOC[C@@H]3c3ccc(C(F)(F)F)cc3)cc2c2c1COC2 [Example 625, (S)-(4-amino-1,3-dihydrofuro[3,4-c]quinolin-8-yl)(3-(4-(trifluoromethyl)phenyl)morpholino)methanethione]
HCT116 MTAP null cells; [1]
  IC50: 882 nM
HCT116 WT cells; [2]
  IC50: 7260 nM

## Nc1nc2cnc(C(=S)N3CCOC[C@@H]3c3ccc(C(F)(F)F)cc3)cc2c2c1COC2 [Example 626, (4-amino-1,3-dihydrofuro[3,4-c][1,7]naphthyridin-8-yl)((3S)-3-(4-(trifluoromethyl)phenyl)-4-morpholinyl)methanethione]
HCT116 MTAP null cells; [1]
  IC50: 394 nM
HCT116 WT cells; [2]
  IC50: 12900 nM

## (4-amino-1-methyl-1H- pyrazolo[4,3- c][1,7]naphthyridin-8- yl)((3R)-3-(4- (trifluoromethyl)benzyl)-1- pyrrolidinyl)methanone and (4-amino-1-methyl-1H- pyrazolo[4,3- c][1,7]naphthyridin-8- yl)((3S)-3-(4- (trifluoromethyl)benzyl)-1- pyrrolidinyl)methanone [Example 432]
HCT116 MTAP null cells; [3]
  IC50: 616 nM
HCT116 WT cells; [4]
  IC50: 22700 nM

## (4-amino-1-methyl-1H- pyrazolo[4,3- c][1,7]naphthyridin-8- yl)((3R)-3-(4- (trifluoromethyl)phenoxy)-1- pyrrolidinyl)methanone and (4-amino-1-methyl-1H- pyrazolo[4,3- c][1,7]naphthyridin-8- yl)((3S)-3-(4- (trifluoromethyl)phenoxy)-1- pyrrolidinyl)methanone [Example 433]
HCT116 MTAP null cells; [3]
  IC50: 421 nM
HCT116 WT cells; [4]
  IC50: 14600 nM

## (4-amino-7-chloro-1,3- dihydrofuro[3,4-c]quinolin-8- yl)((3R,4S)-3-ethyl-4-(4- methylphenyl)-1- pyrrolidinyl)methanone and (4-amino-7-chloro-1,3- dihydrofuro[3,4-c]quinolin-8- yl)((3S,4R)-3-ethyl-4-(4- methylphenyl)-1- pyrrolidinyl)methanone [Example 424]
HCT116 MTAP null cells; [3]
  IC50: 345 nM
HCT116 WT cells; [4]
  IC50: 5690 nM

## (4-amino-7-fluoro-1,3- dihydrofuro[3,4-c]quinolin-8- yl)((3R)-3-hydroxy-3-(4- (trifluoromethyl)phenyl)-1- pyrrolidinyl)methanone and (4-amino-7-fluoro-1,3- dihydrofuro[3,4-c]quinolin-8- yl)((3S)-3-hydroxy-3-(4- (trifluoromethyl)phenyl)-1- pyrrolidinyl)methanone [Example 441]
HCT116 MTAP null cells; [3]
  IC50: 683 nM
HCT116 WT cells; [4]
  IC50: 15600 nM

## (4-amino-7-fluoro-1-methyl- 1H-pyrazolo[4,3-c]quinolin- 8-yl)((4R)-3,3-dimethyl-4-(4- (trifluoromethyl)phenyl)-1- pyrrolidinyl)methanone and (4-amino-7-fluoro-1-methyl- 1H-pyrazolo[4,3-c]quinolin- 8-yl)((4S)-3,3-dimethyl-4-(4- (trifluoromethyl)phenyl)-1- pyrrolidinyl)methanone [Example 445]
HCT116 MTAP null cells; [3]
  IC50: 11 nM
HCT116 WT cells; [4]
  IC50: 240 nM
